The values below come from ChEMBL document CHEMBL4627377, “Betulin isolated from Pyrola incarnata Fisch. inhibited lipopolysaccharide (LPS)-induced neuroinflammation with the guidance of computer-aided drug design” (Bioorg Med Chem Lett, 2020).

The test system of series [1] is BV-2. The series can be described thus: Inhibition of LPS-induced IL-1beta production in […] BV2 cells at 250 ug/ml preincubated for 4 hrs followed by LPS stimulation and measured after 24 hrs by ELISA. The class given is functional, cell-based. The settings on record: Mus musculus.
Series [2] concerns BV-2. The series can be described thus: Inhibition of LPS-induced TNF-alpha production in […] BV2 cells at 250 ug/ml preincubated for 4 hrs followed by LPS stimulation and measured after 24 hrs by ELISA. The note with it: Mus musculus. The series is classed as functional, cell-based.
For series [3], the system named is BV-2. The series can be described thus: Cytotoxicity against […] BV2 cells assessed as survival rate at 250 ug/ml. The class given is cell-based. The note with it: mouse.
The test system of series [4] is BV-2. Put plainly: Inhibition of LPS-induced NO release in […] BV2 cells at 20 ug/ml preincubated for 4 hrs followed by LPS stimulation and measured after 24 hrs by Griess reagent based assay. The class given is functional, cell-based. The settings on record: Mus musculus.
Series [5] deals with BV-2. Put plainly: Inhibition of LPS-induced IL6 production in […] BV2 cells at 20 ug/ml preincubated for 4 hrs followed by LPS stimulation and measured after 24 hrs by ELISA. The class given is functional, cell-based. The settings on record: Mus musculus.
Series [6] deals with BV-2. The series can be described thus: Inhibition of LPS-induced JNK-54 activation in […] BV2 cells preincubated for 4 hrs followed by LPS stimulation and measured after 24 hrs by Western blot analysis. The class given is functional, cell-based. The settings on record: Mus musculus.
For series [7], the system named is BV-2. Put plainly: Inhibition of LPS-induced IL-1beta production in […] BV2 cells preincubated for 4 hrs followed by LPS stimulation and measured after 24 hrs by ELISA. The class given is functional, cell-based. The note with it: Mus musculus.
Series [8] relates to BV-2. The series can be described thus: Inhibition of LPS-induced iNOS expression in […] BV2 cells at 250 ug/ml preincubated for 4 hrs followed by LPS stimulation and measured after 24 hrs by Western blot analysis. The settings on record: Mus musculus. The class given is functional, cell-based.
The subject of series [9] is BV-2. The series can be described thus: Cytotoxicity against […] BV2 cells assessed as survival rate at 125 ug/ml. The series is classed as cell-based. The note with it: mouse.
Series [10] has as its system BV-2. The series can be described thus: Inhibition of LPS-induced JNK-46 phosphorylation in […] BV2 cells at 62.5 to 250 ug/ml preincubated for 4 hrs followed by LPS stimulation and measured after 24 hrs by Western blot analysis. The note with it: Mus musculus. The series is classed as functional, cell-based.
Series [11] has as its system BV-2. The series can be described thus: Inhibition of LPS-induced TNF-alpha production in […] BV2 cells preincubated for 4 hrs followed by LPS stimulation and measured after 24 hrs by ELISA. The series is classed as functional, cell-based. The note with it: Mus musculus.
For series [12], the system named is BV-2. The series can be described thus: Inhibition of LPS-induced IL6 production in […] BV2 cells preincubated for 4 hrs followed by LPS stimulation and measured after 24 hrs by ELISA. The settings on record: Mus musculus. The series is classed as functional, cell-based.
Series [13] deals with BV-2. The series can be described thus: Inhibition of LPS-induced NO release in […] BV2 cells at 62.5 to 250 ug/ml preincubated for 4 hrs followed by LPS stimulation and measured after 24 hrs by Griess reagent based assay. The note with it: Mus musculus. The class given is functional, cell-based.
Series [14] deals with BV-2. Put plainly: Inhibition of LPS-induced JNK-54 phosphorylation in […] BV2 cells at 62.5 to 250 ug/ml preincubated for 4 hrs followed by LPS stimulation and measured after 24 hrs by Western blot analysis. The series is classed as functional, cell-based. The settings on record: Mus musculus.
In series [15] the test system is BV-2. The series can be described thus: Inhibition of LPS-induced JNK-46 activation in […] BV2 cells preincubated for 4 hrs followed by LPS stimulation and measured after 24 hrs by Western blot analysis. The note with it: Mus musculus. The series is classed as functional, cell-based.
For series [16], the system named is BV-2. The series can be described thus: Inhibition of LPS-induced NF-kappaB/p65 nuclear translocation in […] BV2 cells assessed as reduction in p65/NFkappaB level at 250 ug/ml by DAPI staining based fluorescence microscopic analysis. The series is classed as functional, cell-based. The note with it: Mus musculus.
Series [17] deals with BV-2. The series can be described thus: Cytotoxicity against […] BV2 cells assessed as survival rate at 500 ug/ml. The class given is cell-based. The settings on record: mouse.

Active and inactive are the calls of the source. No cut-off for these calls is given here.

As for `C[C@@H]1CC[C@]2(C(=O)O[C@H]3O[C@@H](CO)[C@H](O)[C@@H](O)[C@@H]3O)CC[C@]3(C)C(=CC[C@@H]4[C@@]5(C)CC[C@H](O)[C@@](C)(CO)[C@@H]5CC[C@]43C)[C@@H]2[C@]1(C)O`, the inhibition entry with BV-2 [1] and in the series with BV-2 [2] was “Active” in each case. For the same compound, the Activity entry in the series with BV-2 [3] is reported as “Non-Toxic”.
As for `COc1cc2c(cc1OC)C(=O)C(CC1CCN(Cc3ccccc3)CC1)C2` (configuration not stated), the inhibition result in the series with BV-2 [4] and in the series on BV-2 [5] was “Active” in each case.
As to `C=C(C)[C@@H]1CC[C@]2(CO)CC[C@]3(C)[C@H](CC[C@@H]4[C@@]5(C)CC[C@H](O)C(C)(C)[C@@H]5CC[C@]43C)[C@@H]12` [BETULIN], the inhibition entry in the series on BV-2 [6], in the series with BV-2 [7], in the series with BV-2 [11], in the series on BV-2 [12] and with BV-2 [15] was “Dose-dependent effect” throughout. Further, the inhibition result in the series on BV-2 [8], in the series with BV-2 [10], in the series with BV-2 [13], in the series on BV-2 [14] and with BV-2 [16] was “Active” each time. For the same compound, the Activity entry in the series on BV-2 [9] is given as “Non-Toxic”.
For the compound `C[C@@H]1CC[C@]2(C(=O)O)CC[C@]3(C)C(=CC[C@@H]4[C@@]5(C)CC[C@H](O)[C@@](C)(CO)[C@@H]5CC[C@]43C)[C@@H]2[C@]1(C)O` [ROTUNDIC ACID], the inhibition entry in the series with BV-2 [1] and in the series on BV-2 [2] was “Active” throughout. Also, the Activity entry in the series on BV-2 [3] is reported as “Non-Toxic”.
For `C[C@H]1[C@H](C)CC[C@]2(C(=O)O)CC[C@]3(C)C(=CC[C@@H]4[C@@]5(C)CC[C@H](O)C(C)(C)[C@@H]5CC[C@]43C)[C@H]12` [URSOLIC ACID], the Activity entry in the series with BV-2 [17] is reported as “Non-Toxic”. The inhibition entry in the series on BV-2 [1] and in the series on BV-2 [2] was “Active” in each case.
